Where a name gives a salt, the structure may show the parent alone. Read-outs that look alike come from different tables or passages of the source.

Data set [1] deals with chloroform-induced ventricular arrhythmias. Kind of data set: Mouse chloroform-induced ventricular arrhythmias test. The class given is in vivo, DD-strain mice. Conditions: for Anti-arrhythmic Activity: 100 mg/kg orally, effective when two or more of three examples kept 720 or less heart beat/min for 30 seconds. As to the method: Antiarrhythmic activity was examined according to mouse chloroform-induced ventricular arrhythmias test.
DD-strain mice weighing 18 -22 g were abstinent from food and water for 4-5 hours and antiarrhythmic activity was examined according to the Block's method [Life Science 28, 2623 (1981)]. Drugs tested were orally administered (100 mg/kg) and the mice were exposed to chloroform. After stop of respiration, electrocardiogram was measured according to standard limb leading method. The case where 720 or less heart beat/min was maintained for 30 seconds was regarded as effective.
The test compound was judged as being effective when two or more examples were effective among three examples.

A short description of data set [2]: Test for acute toxicity (MLD; LD50). Conditions: mouse, in vivo. The procedure: (§1) Groups of 5 male dd-strain mice weighing 20 ±1 g were used. The test compounds were administered either orally (0.3 mg/kg) or intraperitoneally (0.1 mg/kg).
(§2) The MLD (minimum lethal dose) was determined by observing the mortality for 7 days after the administration.

In a further data set the test system is male dd-strain mice. Kind of data set: Test for acute toxicity (MLD; LD50). Conditions: mouse, in vivo. As to the method: as §1, §2
For the next data set, the system named is pupil size. Kind of data set: Mydriasis activity test (anticholine activity). The class given is in vivo, Male dd-strain mice. Conditions: oral; dose required to double the pupil size 30 minutes after administration. An excerpt: (§3) In Table 2, Test Nos. 1 and 4 are tests on antiarrhythmic activity and Test No. 3, on anticholine activity and Test No. 5, on side effect. What is meant by the small ratio of Test No. 1 to that of Test No. 3 and the small ratio of Test No. 4 to that of Test No. 5 is that the compound has high therapeutic ratio (wide safety margin).

Data set [3] concerns left atrium. Kind of data set: Prolongation of effective refractory period in excised left atrium. The arrangement: species or system Male Hartley-strain guinea pigs. Conditions: Cavia porcellus; guinea pig left atrium in Krebs-Henseleit solution, 31 ± 1°C; read-out: The concentration required to prolong effective refractory period by 30%.
Excerpt: as §3

The test system of data set [4] is left atrium. The data set is described as follows: Reduction of amplitude of myocardial contractile force in excised left atrium. The arrangement: species or system Male Hartley-strain guinea pigs. An excerpt: In Table 2, Test Nos. 1 and 4 are tests on antiarrhythmic activity and Test No. 3, on anticholine activity and Test No. 5, on side effect.

Turning to `CCN(CC)CCNC1c2cc(C)ccc2OCc2ncccc21` (centres unmarked) [5-[2-diethylamino)-ethyl]amino-7-methyl-5,11-dihydro[1]benz-oxepino[3,4-b]pyridine, reference compound], the “Anti-arrhythmic Activity” value in data set [1] is recorded as “^*3 Ineffective”.
For the molecule `CCN(CC)CCNC1c2cc(OC)ccc2OCc2ncccc21` (centres unmarked) [1.5 Fumarate of Compound 1], the LD50 at 72 h was 93 mg/kg in data set [2] (iv, read-out: Acute toxicity test LD50 iv) and greater than 1000 mg/kg in data set [2] (po, read-out: Acute toxicity test LD50 po). Further, in the data set with male dd-strain mice (ip), the “Acute Toxicity MLD i.p.” value was “more than 100 mg/kg”. For the same molecule, the “Acute Toxicity MLD p.o.” value with male dd-strain mice (po) was “more than 300 mg/kg”. The “Anti-arrhythmic Activity” value in data set [1] is “Effective”. Further, the ED50 in data set [1] (mouse, oral, read-out: Chloroform-induced ventricular antiarrhythmic activity test ED50) turned out to be 80 mg/kg. Moreover, the “Mydriasis activity test ED100” value in the data set with pupil size is 235 mg/kg. Moreover, in the data set with left atrium [3], the EC30 came to 4.9 µg/mL. Besides, the “The concentration required to reduce the amplitude of myocardial contractile force by 30%” value with left atrium [4] (guinea pig left atrium in Krebs-Henseleit solution, 31 ± 1°C) came to 110 µg/mL. Further, the “5/4 (ratio)” value with left atrium [4] (ratio of Test No. 5 (contractile force) to Test No. 4 (refractory period)) worked out at 22.4.

These data come from EP0270692A1, “ANTIARRHYTHMIC AGENT” (KYOWA HAKKO KOGYO CO., LTD., priority 1986, dated 1988).
